Experimental data from ChEMBL document CHEMBL1201862, “PubChem BioAssay data set” (2004).
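Cells were grown in 96-well plates and exposed to each compound for 48 hours at five concentrations; endpoints were interpolated linearly between bracketing concentrations, or set to the highest concentration if not reached. GI50 is the concentration that inhibits growth by half.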 The source made the active and inactive calls. No stated cut-off is given here; in the data, active = GI50 up to about 1.1 µM and inactive = higher.

What was measured:
Assay in all cases: NCI anticancer screen, dose series, 48 h
LXFL 529 = tested on: LXFL 529
XF498 = tested on: XF498
DMS-114 = tested on: DMS-114
DLD-1 = tested on: DLD-1
SNB-78 = tested on: SNB-78
RXF 631 = tested on: RXF 631
DMS-273 = tested on: DMS-273
M19-MEL = tested on: M19-MEL
HOP-18 = tested on: HOP-18

Compound	GI50 (LXFL 529)	GI50 (XF498)	GI50 (DMS-114)	GI50 (DLD-1)	GI50 (SNB-78)	GI50 (RXF 631)	GI50 (DMS-273)	GI50 (M19-MEL)	GI50 (HOP-18)
C[C@]12Cc3conc3C(O)=C1CC[C@@H]1C2CC[C@@]2(C)C1CC[C@]2(C)O (stereo partly drawn)	15.1 µM (inactive)	18.2 µM (inactive)	16.4 µM (inactive)	16.5 µM (inactive)	22.4 µM (inactive)	21.6 µM (inactive)	9.04 µM (inactive)	15.1 µM (inactive)	–
CCOc1ccc2c(c1)[n+]([O-])c(-c1ccc(Br)cc1)c(N)[n+]2[O-]	52.2 µM (inactive)	49.9 µM (inactive)	30.4 µM (inactive)	99.5 µM (inactive)	> 100 µM (inactive)	56.4 µM (inactive)	39.4 µM (inactive)	59.2 µM (inactive)	57.4 µM (inactive)
N#C/C(=C/c1ccsc1)C(=O)c1ccccc1	> 100 µM (inactive)	> 100 µM (inactive)	> 100 µM (inactive)	> 100 µM (inactive)	> 100 µM (inactive)	–	> 100 µM (inactive)	> 100 µM (inactive)	> 100 µM (inactive)
Cc1nc2nn(C)cc2c(=O)n1/N=C/c1ccccc1	–	> 100 µM (inactive)	> 100 µM (inactive)	> 100 µM (inactive)	> 100 µM (inactive)	–	> 100 µM (inactive)	> 100 µM (inactive)	73.1 µM (inactive)
O=C1OC(=O)C2C1C1C(c3ccccc3)=C(c3ccccc3)C2(O)C2C(=O)OC(=O)C12 (stereo not drawn)	58.3 µM (inactive)	–	28.6 µM (inactive)	91 µM (inactive)	97.7 µM (inactive)	–	–	> 100 µM (inactive)	–
COC(=O)C1=Cc2cn(S(=O)(=O)c3ccc(C)cc3)c3cccc(c23)C(C=C(C)C)N1C(C)=O (stereo not drawn)	32 µM (inactive)	9.55 µM (inactive)	11.5 µM (inactive)	14.7 µM (inactive)	24.5 µM (inactive)	–	6.01 µM (inactive)	21.4 µM (inactive)	38.5 µM (inactive)
Nc1ccn(CCCC(c2ccccc2)P(=O)(O)O)c(=O)n1 (stereo not drawn)	> 100 µM (inactive)	–	> 100 µM (inactive)	> 100 µM (inactive)	> 100 µM (inactive)	–	> 100 µM (inactive)	> 100 µM (inactive)	> 100 µM (inactive)
O=C(O)c1cc2c3ccccc3nc-2c[nH]1	> 100 µM (inactive)	–	> 100 µM (inactive)	> 100 µM (inactive)	> 100 µM (inactive)	–	> 100 µM (inactive)	> 100 µM (inactive)	> 100 µM (inactive)
CN(C)c1ccc(/C=N\N2C(=O)c3ccccc3C2=O)cc1	> 100 µM (inactive)	> 100 µM (inactive)	> 100 µM (inactive)	> 100 µM (inactive)	> 100 µM (inactive)	–	> 100 µM (inactive)	> 100 µM (inactive)	> 100 µM (inactive)
CCOC(=O)/C(C(=O)c1ccccc1)=C1/NCCN1C	> 100 µM (inactive)	> 100 µM (inactive)	–	> 100 µM (inactive)	> 100 µM (inactive)	–	–	> 100 µM (inactive)	> 100 µM (inactive)
Cc1[nH]c(O)nc1C(=O)c1ccc(-n2ccnc2)cc1	> 100 µM (inactive)	–	> 100 µM (inactive)	> 100 µM (inactive)	–	–	> 100 µM (inactive)	> 100 µM (inactive)	–
N#Cc1c(-c2ccc(Cl)cc2)c(-c2ccc(Cl)cc2)nn(CCOC(=O)CCC(=O)O)c1=O	1.03 µM (active)	–	0.931 µM (active)	4.13 µM (inactive)	–	–	2.08 µM (inactive)	1.8 µM (inactive)	29.2 µM (inactive)
O=C(N/C(=C/c1cccc([N+](=O)[O-])c1)c1nc2cc(Cl)ccc2[nH]1)c1ccccc1	12.6 µM (inactive)	–	8.51 µM (inactive)	–	39.9 µM (inactive)	10.5 µM (inactive)	–	24 µM (inactive)	30.9 µM (inactive)
CC(C)(C)OC(=O)NCCc1cccc2c1oc1c(CCC(=O)O)cccc12	> 100 µM (inactive)	> 100 µM (inactive)	> 100 µM (inactive)	> 100 µM (inactive)	> 100 µM (inactive)	–	> 100 µM (inactive)	> 100 µM (inactive)	> 100 µM (inactive)
